# Experimental data taken from patent US6608203B2, “Tetrahydroisoquinoline compounds as estrogen agonists/antagonists” (Pfizer Inc., priority 1999, dated 2003).
# Assays:
# [1] = system: male Sprague-Dawley rats; test: Assay 2: Effect on Prostate Weight; type: in vivo, rat; settings: subcutaneous injection daily for 14 days, compared to vehicle
# Method: Three-month-old male Sprague-Dawley rats are administered by subcutaneous injection control vehicle (10% ethanol in water), estradiol (30 μg/kg), testosterone (1 mg/kg), or a test compound according to the present invention daily for 14 days (n=6/group). After 14 days the animals are sacrificed, the prostate is removed, and the wet prostate weight is determined. Mean weight is determined and statistical significance (p<0.05) is determined compared to the vehicle-treated group using the Student's t-test.
# [2] = unlike estrogen; cited from earlier work
# [3] = system: male rats; settings: cited from earlier work
# [4] = system: male rats; settings: 200 and 400 mg/kg/day; cited from earlier work
compound,measurement,setting,value
"C[C@]12CC[C@H]3[C@@H](CCC4=CC(=O)CC[C@@]43C)[C@@H]1CC[C@@H]2O [Testosterone, testosterone]",effect on wet prostate weight,[1]; testosterone 1 mg/kg,no effect
"C[C@]12CC[C@@H]3c4ccc(O)cc4CC[C@H]3[C@@H]1CC[C@@H]2O [estrogen, estradiol]",effect on wet prostate weight,[1]; estrogen at 30 μg/kg,significantly reduce prostate weight
"O=C(c1ccc(OCCN2CCCCC2)cc1)c1c(-c2ccc(O)cc2)sc2cc(O)ccc12 [raloxifene, 6-hydroxy-2-(4-hydroxyphenyl)-3-[4-(2-piperidinoethoxy)benzoyl] benzo[b] thiophene]",uterine stimulatory effect,[2],minimal uterine stimulatory effect
same,effect on ventral prostate,[3],regression of the ventral prostate
"CC/C(=C(\c1ccccc1)c1ccc(OCCN(C)C)cc1)c1ccccc1 [tamoxifen, 1-(4-β-dimethylaminoethoxyphenyl)-1,2-diphenyl-but-1-ene]",weights of the testes and secondary sex organs,[4],reduces the weights of the testes and secondary sex organs
